From ChEMBL document CHEMBL5331122, “Structure-Activity Relationship Study of Antimicrobial Peptide PE2 Delivered Novel Linear Derivatives with Potential of Eradicating Biofilms and Low Incidence of Drug Resistance” (J Med Chem, 2023)
≈ marks a conversion by molar mass, not a printed value. Calls of active or inactive are those of the source. The rule behind the calls is not given here. Where a SMILES comes first, the peptide text is derived from it. Bridges are numbered along the chain shown (N, C = ends). [ ]: non-standard residue; d: D form. The star is where a group is joined. Heptanoyl(6-Me) = CC(C)CCCCC(=O)*; Dab = NCC[C@H](N)C(=O)O

What was measured:
Staphylococcus aureus [1] = assay: Antibacterial activity against Staphylococcus aureus ATCC 25923 assessed as bacterial growth inhibition incubated for 18 hrs by broth microdilution method; assay type: functional
Klebsiella pneumoniae = assay: Antibacterial activity against Klebsiella pneumoniae ATCC 700603 assessed as bacterial growth inhibition incubated for 18 hrs by broth microdilution method; assay type: functional
Escherichia coli [2] = assay: Antibacterial activity against Escherichia coli ATCC 25922 assessed as bacterial growth inhibition incubated for 18 hrs by broth microdilution method; assay type: functional
Bacillus subtilis = assay: Antibacterial activity against Bacillus subtilis ATCC 23857 assessed as bacterial growth inhibition incubated for 18 hrs by broth microdilution method; assay type: functional
Erythrocyte = assay: Hemolytic activity in mouse red blood cell assessed as hemolysis incubated for 1 hr; assay type: toxicity, cell-based; settings: dose 4-256 µg/ml
[3] = Hemolytic activity in mouse red blood cells assessed as hemolysis at 256 microg/ml incubated for 1 hr relative to control; assay type: toxicity, cell-based, Erythrocyte; settings: red blood cells (erythrocytes), at 256 µg/mL, read-out: Activity
Pseudomonas aeruginosa = assay: Antibacterial activity against Pseudomonas aeruginosa ATCC 27853 assessed as bacterial growth inhibition incubated for 18 hrs by broth microdilution method; assay type: functional
Enterococcus faecalis = assay: Antibacterial activity against Enterococcus faecalis ATCC 29212 assessed as bacterial growth inhibition incubated for 18 hrs by broth microdilution method; assay type: functional
Escherichia coli [4] = assay: Antibacterial activity against rifampicin-resistant Escherichia coli ATCC 25922 assessed as reduction in bacterial growth incubated for 18 hrs by broth microdilution method; assay type: functional
Escherichia coli [5] = assay: Induction of drug resistance against Escherichia coli ATCC 25922measured after 5 to 7 passages by sequential passaging method; assay type: functional
Escherichia coli [6] = assay: Induction of drug resistance against Escherichia coli ATCC 25922 assessed as fold increase in MIC measured upto 15 passages by sequential passaging method; assay type: functional
Staphylococcus aureus [7] = assay: Induction of drug resistance against Staphylococcus aureus ATCC 25923 assessed as fold increase in MIC measured upto 15 passages by sequential passaging method; assay type: functional
Staphylococcus aureus [8] = assay: Antibacterial activity against rifampicin-resistant Staphylococcus aureus ATCC 25923 assessed as reduction in bacterial growth incubated for 18 hrs by broth microdilution method; assay type: functional
Escherichia coli [9] = assay: Antibacterial activity against Escherichia coli ATCC 25922 assessed as fold increase in MIC in presence of ZnCl2; assay type: functional
Escherichia coli [10] = assay: Antibacterial activity against Escherichia coli ATCC 25922 assessed as fold increase in MIC in presence of KCl; assay type: functional
Escherichia coli [11] = assay: Antibacterial activity against Escherichia coli ATCC 25922 assessed as fold increase in MIC in presence of FeCl3; assay type: functional
Escherichia coli [12] = assay: Antibacterial activity against Escherichia coli ATCC 25922 assessed as fold increase in MIC in presence of NaCl; assay type: functional
Staphylococcus aureus [13] = assay: Antibacterial activity against Staphylococcus aureus ATCC 25923 assessed as fold increase in MIC in presence of ZnCl2; assay type: functional
Staphylococcus aureus [14] = assay: Antibacterial activity against Staphylococcus aureus ATCC 25923 assessed as fold increase in MIC in presence of KCl; assay type: functional
Staphylococcus aureus [15] = assay: Antibacterial activity against Staphylococcus aureus ATCC 25923 assessed as fold increase in MIC in presence of FeCl3; assay type: functional
Staphylococcus aureus [16] = assay: Antibacterial activity against Staphylococcus aureus ATCC 25923 assessed as fold increase in MIC in presence of NaCl; assay type: functional
Escherichia coli [17] = assay: Antibacterial activity against Escherichia coli ATCC 25922 assessed as fold increase in MIC in presence of MgCl2; assay type: functional
Staphylococcus aureus [18] = assay: Antibacterial activity against Staphylococcus aureus ATCC 25923 assessed as fold increase in MIC in presence of MgCl2; assay type: functional

Structure (SMILES) | MIC (Staphylococcus aureus [1]) | MIC (Klebsiella pneumoniae) | MIC (Escherichia coli [2]) | MIC (Bacillus subtilis) | HC10 (Erythrocyte) | hemolysis at 1 h, 256 µg/mL [3] | MIC (Pseudomonas aeruginosa) | MIC (Enterococcus faecalis) | other results
CC[C@H](C)[C@H](NC(=O)[C@H](CCN)NC(=O)CC(O)C(C)C)C(=O)N[C@@H](CCN)C(=O)N[C@H](Cc1ccccc1)C(=O)N[C@@H](CC(C)C)C(=O)N[C@@H](CCN)C(=O)N[C@@H](C(=O)N[C@@H](CC(C)C)C(=O)N[C@H](C(N)=O)[C@@H](C)O)C(C)C (stereo not given in full) | > 128 µg/mL | 64 µg/mL (≈ 57.2 µM) | 32 µg/mL (≈ 28.6 µM) | 8 µg/mL (≈ 7.15 µM) | 512 µg/mL | < 2% | 4 µg/mL (≈ 3.58 µM) | > 128 µg/mL | –
CCC[C@H](O)CC(=O)N[C@@H](CCN)C(=O)N[C@H](C(=O)N[C@@H](CCN)C(=O)N[C@H](Cc1ccccc1)C(=O)N[C@@H](CC(C)C)C(=O)N[C@@H](CCN)C(=O)N[C@@H](C(=O)N[C@@H](CC(C)C)C(=O)N[C@H](C(N)=O)[C@@H](C)O)C(C)C)[C@@H](C)CC | 128 µg/mL (≈ 114 µM) | 64 µg/mL (≈ 57.2 µM) | 32 µg/mL (≈ 28.6 µM) | 8 µg/mL (≈ 7.15 µM) | 512 µg/mL | < 2% | 4 µg/mL (≈ 3.58 µM) | > 128 µg/mL | –
CCCCCC(=O)N[C@@H](CCN)C(=O)N[C@H](C(=O)N[C@@H](CCN)C(=O)N[C@H](Cc1ccccc1)C(=O)N[C@@H](CC(C)C)C(=O)N[C@@H](CCN)C(=O)N[C@@H](C(=O)N[C@@H](CC(C)C)C(=O)N[C@@H](Cc1ccc(O)cc1)C(N)=O)C(C)C)[C@@H](C)CC | 16 µg/mL (≈ 13.7 µM) | 8 µg/mL (≈ 6.87 µM) | 4 µg/mL (≈ 3.43 µM) | 4 µg/mL (≈ 3.43 µM) | 512 µg/mL | < 5% | 16 µg/mL (≈ 13.7 µM) | 64 µg/mL (≈ 55 µM) | –
CO[C@H]1/C=C/O[C@@]2(C)Oc3c(C)c(O)c4c(O)c(c(/C=N/N5CCN(C)CC5)c(O)c4c3C2=O)NC(=O)/C(C)=C\C=C\[C@H](C)[C@H](O)[C@@H](C)[C@@H](O)[C@@H](C)[C@H](OC(C)=O)[C@@H]1C [RIFAMPIN] | < 1 µg/mL | 32 µg/mL (≈ 38.9 µM) | 4 µg/mL (≈ 4.86 µM) | < 1 µg/mL | – | – | 32 µg/mL (≈ 38.9 µM) | < 1 µg/mL | MIC (Escherichia coli [4]): 4100 µg/mL (≈ 4980 µM); Activity (Escherichia coli [5]): Active; fold change (FC) (Escherichia coli [6]): 64; fold change (FC) (Staphylococcus aureus [7]): 512; MIC (Staphylococcus aureus [8]): 2050 µg/mL (≈ 2490 µM)
CCCCCC(=O)N[C@@H](CCN)C(=O)N[C@H](C(=O)N[C@@H](CCN)C(=O)N[C@H](Cc1ccccc1)C(=O)N[C@@H](CC(C)C)C(=O)N[C@@H](CCN)C(=O)N[C@@H](C(=O)N[C@@H](CC(C)C)C(=O)N[C@@H](Cc1ccccc1)C(N)=O)C(C)C)[C@@H](C)CC | 16 µg/mL (≈ 13.9 µM) | 32 µg/mL (≈ 27.9 µM) | 16 µg/mL (≈ 13.9 µM) | 4 µg/mL (≈ 3.48 µM) | 512 µg/mL | < 5% | 4 µg/mL (≈ 3.48 µM) | 64 µg/mL (≈ 55.7 µM) | –
CC(C)CCCCC(=O)N[C@@H](CCN)C(=O)N[C@H](C(=O)N[C@@H](CCN)C(=O)N[C@H]1CCNC(=O)[C@H]([C@@H](C)O)NC(=O)[C@H](CCN)NC(=O)[C@H](CCN)NC(=O)[C@H](CC(C)C)NC(=O)[C@@H](Cc2ccccc2)NC(=O)[C@H](CCN)NC1=O)[C@@H](C)O ({Heptanoyl(6-Me)}-[Dab]T[Dab][Dab][Dab][dF]L[Dab][Dab]T; lactam 4-C) | 16 µg/mL (≈ 13.5 µM) | 4 µg/mL (≈ 3.36 µM) | < 1 µg/mL | 8 µg/mL (≈ 6.73 µM) | – | – | 2 µg/mL (≈ 1.68 µM) | 128 µg/mL (≈ 108 µM) | fold change (FC) (Escherichia coli [9]): <=2; fold change (FC) (Escherichia coli [10]): <=2; fold change (FC) (Escherichia coli [11]): <=2; fold change (FC) (Escherichia coli [12]): <=2; fold change (FC) (Staphylococcus aureus [13]): 4; fold change (FC) (Staphylococcus aureus [14]): 4; fold change (FC) (Staphylococcus aureus [15]): 4; fold change (FC) (Staphylococcus aureus [16]): 4; fold change (FC) (Escherichia coli [17]): <=2; fold change (FC) (Staphylococcus aureus [18]): 4
CCCCCC(=O)N[C@H]1CCNC(=O)[C@H]([C@@H](C)O)NC(=O)[C@H](CC(C)C)NC(=O)[C@@H](C(C)C)NC(=O)[C@H](CCN)NC(=O)[C@H](CC(C)C)NC(=O)[C@@H](Cc2ccccc2)NC(=O)[C@H](CCN)NC(=O)[C@H]([C@@H](C)CC)NC1=O | > 128 µg/mL | 64 µg/mL (≈ 59 µM) | 32 µg/mL (≈ 29.5 µM) | 128 µg/mL (≈ 118 µM) | 512 µg/mL | < 5% | > 128 µg/mL | > 128 µg/mL | –
CC[C@H](C)[C@@H]1NC(=O)[C@H](CCN)NC(=O)[C@H](CC(C)C)NC(=O)[C@H]([C@@H](C)O)NC(=O)[C@H](CC(C)C)NC(=O)[C@@H](C(C)C)NC(=O)[C@H](CCN)NC(=O)[C@H](CC(C)C)NC(=O)[C@@H](Cc2ccccc2)NC(=O)[C@H](CCN)NC1=O | > 128 µg/mL | 32 µg/mL (≈ 29.1 µM) | 32 µg/mL (≈ 29.1 µM) | 16 µg/mL (≈ 14.5 µM) | 512 µg/mL | < 5% | 16 µg/mL (≈ 14.5 µM) | > 128 µg/mL | –
